Source: the NIST ThermoML archive (doi:10.1021/acs.jced.8b01075)

Assay: molar heat capacity at saturation pressure
Details: Crystal, Small (less than 1 g) adiabatic calorimetry

O=C(O)c1ccccc1 [benzoic acid]
Details | molar heat capacity [J/K/mol]
4.54 K | 0.238
4.75 K | 0.256
4.88 K | 0.271
5.02 K | 0.296
5.16 K | 0.31
5.29 K | 0.316
5.42 K | 0.327
5.53 K | 0.343
5.64 K | 0.358
5.75 K | 0.372
5.85 K | 0.388
5.95 K | 0.419
6.07 K | 0.438
6.22 K | 0.468
6.38 K | 0.502
6.53 K | 0.521
6.7 K | 0.571
6.84 K | 0.618
6.99 K | 0.662
7.14 K | 0.7
7.29 K | 0.731
7.43 K | 0.778
7.57 K | 0.823
7.72 K | 0.893
7.86 K | 0.954
8.01 K | 0.978
8.16 K | 1.053
8.31 K | 1.116
8.46 K | 1.163
8.6 K | 1.263
8.76 K | 1.329
8.91 K | 1.384
9.07 K | 1.472
9.22 K | 1.512
9.38 K | 1.58
9.53 K | 1.649
9.69 K | 1.725
9.84 K | 1.858
10 K | 1.902
10.21 K | 2.036
10.49 K | 2.207
10.76 K | 2.354
11.04 K | 2.56
11.32 K | 2.751
11.6 K | 2.956
11.88 K | 3.123
12.17 K | 3.346
12.45 K | 3.529
12.75 K | 3.819
13.03 K | 4.037
13.33 K | 4.28
13.62 K | 4.532
13.91 K | 4.755
14.01 K | 4.933
14.31 K | 5.137
14.6 K | 5.519
14.9 K | 5.794
15.19 K | 6.073
15.49 K | 6.356
15.79 K | 6.616
16.09 K | 6.911
16.39 K | 7.207
16.7 K | 7.541
17 K | 7.836
17.3 K | 8.091
17.6 K | 8.409
17.91 K | 8.786
18.21 K | 9.095
18.52 K | 9.471
18.83 K | 9.71
19.13 K | 10.14
19.44 K | 10.4
19.58 K | 10.55
19.75 K | 10.7
19.89 K | 10.86
20.52 K | 11.49
21.41 K | 12.5
22.31 K | 13.49
23.22 K | 14.56
24.13 K | 15.56
25.05 K | 16.55
25.98 K | 17.58
26.92 K | 18.63
27.86 K | 19.67
28.81 K | 20.7
29.76 K | 21.73
30.71 K | 22.75
31.67 K | 23.72
32.64 K | 24.69
33.6 K | 25.68
34.57 K | 26.57
35.56 K | 27.57
36.53 K | 28.47
37.51 K | 29.44
38.5 K | 30.44
39.89 K | 31.71
40.89 K | 32.53
41.89 K | 33.31
42.89 K | 33.99
43.89 K | 34.84
44.89 K | 35.7
45.89 K | 36.42
46.89 K | 37.22
47.9 K | 38.04
48.9 K | 38.77
49.91 K | 39.47
50.92 K | 40.13
51.94 K | 40.84
52.95 K | 41.56
53.97 K | 42.16
54.98 K | 42.68
56.02 K | 43.44
57.03 K | 44.09
58.06 K | 44.66
59.17 K | 45.31
60.19 K | 45.98
61.22 K | 46.55
62.24 K | 47.19
63.27 K | 47.79
64.3 K | 48.32
65.32 K | 48.9
66.35 K | 49.45
67.38 K | 49.97
68.41 K | 50.43
69.43 K | 50.89
71.27 K | 51.74
73.3 K | 52.71
75.33 K | 53.69
77.36 K | 54.68
78.78 K | 55.18
79.56 K | 55.66
81.07 K | 56.41
83.09 K | 57.46
85.1 K | 58.18
87.11 K | 58.97
89.11 K | 59.73
91.11 K | 60.5
93.12 K | 61.27
95.11 K | 62.07
97.11 K | 62.81
99.11 K | 63.57
101.6 K | 64.59
104.58 K | 65.66
107.58 K | 66.69
110.58 K | 67.85
113.59 K | 69.03
116.61 K | 70.18
119.62 K | 71.3
122.63 K | 72.54
125.65 K | 73.61
128.67 K | 74.78
131.69 K | 75.96
134.72 K | 77.09
137.76 K | 78.23
140.79 K | 79.41
143.83 K | 80.49
146.87 K | 81.68
149.91 K | 82.93
152.95 K | 84.03
156 K | 85.17
159.05 K | 86.37
162.09 K | 87.59
165.18 K | 88.85
168.23 K | 90.02
171.28 K | 91.22
174.33 K | 92.46
177.38 K | 93.64
180.44 K | 94.8
183.49 K | 96.08
186.54 K | 97.26
189.6 K | 98.55
192.66 K | 99.83
195.71 K | 101
198.77 K | 102.3
201.83 K | 103.6
204.89 K | 104.9
208.45 K | 106.6
212.52 K | 108.2
216.67 K | 110.1
220.76 K | 111.7
224.85 K | 113.5
228.95 K | 115.3
237.16 K | 119
241.28 K | 120.8
245.39 K | 122.6
249.52 K | 124.4
253.64 K | 126.3
257.77 K | 128.1
261.9 K | 130
266.04 K | 132
270.19 K | 133.8
274.34 K | 135.7
278.49 K | 137.6
282.77 K | 139.8
286.93 K | 141.6
291.09 K | 143.5
295.26 K | 145.5
299.42 K | 147.4
304.38 K | 149.7
310.53 K | 152.6
317.37 K | 155.7
324.19 K | 158.8
330.99 K | 162
